In US7071225B2, “Arylaminopropane analogues and their use for the treatment of glaucoma” (Alcon, Inc., priority 2001, dated 2006):
Structures can show the parent of a compound that is named as a salt. Where two headings read alike, the source gives them in different places.

Assays:
5-HT2a = molecular target: T1, 5-HT2a (Rattus norvegicus, UniProt P14842); test: 5-HT2 functional assay: [Ca2+]i mobilization (FLIPR) in A7r5 cells; assay type: cell-based; settings: for Emax: read-out: FLIPR 5-HT2a % Emax A7r5 Ca + 2
T1 construct: endogenous in cells; host or cells: A7r5 rat vascular smooth muscle cells
T1 sequence (P14842 whole entry): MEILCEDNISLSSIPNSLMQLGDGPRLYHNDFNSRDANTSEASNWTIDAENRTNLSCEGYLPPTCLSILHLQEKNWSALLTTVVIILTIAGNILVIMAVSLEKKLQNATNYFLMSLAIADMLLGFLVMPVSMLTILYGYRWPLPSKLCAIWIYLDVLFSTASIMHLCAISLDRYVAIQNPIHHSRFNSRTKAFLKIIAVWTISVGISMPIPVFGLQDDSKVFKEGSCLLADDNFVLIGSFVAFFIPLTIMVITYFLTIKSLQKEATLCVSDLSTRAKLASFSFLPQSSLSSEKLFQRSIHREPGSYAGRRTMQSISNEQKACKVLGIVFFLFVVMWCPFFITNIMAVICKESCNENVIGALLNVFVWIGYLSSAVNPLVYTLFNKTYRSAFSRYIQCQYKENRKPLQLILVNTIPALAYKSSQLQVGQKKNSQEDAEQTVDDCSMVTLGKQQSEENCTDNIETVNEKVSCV
Description: The receptor-mediated mobilization on intracellular calcium ([Ca^2+]i) was studied using the Fluorescence Imaging Plate Reader (FLIPR) instrument. Rat vascular smooth muscle cells, A7r5, were grown in a normal media of DMEM/10% FBS and 10 μg/mL gentamycin. Confluent cell monolayers were trypsinized, pelleted, and re-suspended in normal media. Cells were seeded in a 50 μL volume at a density of 20,000 cells/well in a black wall, 96-well tissue culture plate and grown for 2 days.
On the day of the experiment, one vial of FLIPR Calcium Assay Kit dye was re-suspended in 50 mL of a FLIPR buffer consisting of Hank's Balanced Salt Solution (HBSS), 20 mM HEPES, and 2.5 mM probenecid, pH 7.4. Cells were loaded with the calcium-sensitive dye by addition of an equal volume ([…]) to each well of the 96-well plate and incubated with dye for 1 h at 23° C.
Typically, test compounds were stored at 25 μM in 50% DMSO/50% Ethanol solvent. Compounds were diluted 1:50 in 20% DMSO/20% Ethanol. For “hit” screening, compounds were further diluted 1:10 in FLIPR buffer and tested at a final concentration of 10 μM. For dose-response experiments, compounds were diluted 1:50 in FLIPR buffer and serially diluted 1:10 to give a 5- or 8-point dose-response curve.
The compound plate and cell plate were placed in the FLIPR instrument. At the beginning of an experimental run, a signal test was performed to check the basal fluorescence signal from the dye-loaded cells and the uniformity of the signal across the plate. The basal fluorescence was adjusted between 8000–12000 counts by modifying the exposure time, the camera F-stop, or the laser power. Instrument settings for a typical assay were the following: laser power 0.3–0.6 W, camera F-stop F/2, and exposure time 0.4 sec. An aliquot (25 μL) of the test compound was added to the existing 100 μL dye-loaded cells at a dispensing speed of 50 μL/sec. Fluorescence data were collected in real-time at 1.0 sec intervals for the first 60 secs and at 6.0 sec intervals for an additional 120 secs. Responses were measured as peak fluorescence intensity minus basal and where appropriate were expressed as a percentage of a maximum 5-HT-induced response.

5-HT2 receptor [1] = molecular target: T2, 5-HT2 receptor (Rattus norvegicus, UniProt P14842); test: 5-HT2 functional assay: phosphoinositide (PI) turnover in A7r5 cells; assay type: cell-based; set-up: [^3H]myo-inositol-labeled A7r5 rat vascular smooth muscle cells; endogenous in cells; host or cells: A7r5 rat vascular smooth muscle cells
T2 sequence (P14842 whole entry): as above
Description: The relative agonist activity of serotonergic compounds at the 5-HT2 receptor can be determined in vitro using the ability of the compounds to stimulate the production of [^3H]inositol phosphates in [^3H]myo-inositol-labeled A7r5 rat vascular smooth muscle cells by their ability to activate the enzyme phospholipase C. These cells are grown in culture plates, maintained in a humidified atmosphere of 5% CO2 and 95% air and fed semi-weekly with Dulbecco's modified Eagle medium (DMEM) containing 4.5 g/L glucose and supplemented with 2 mM glutamine, 10 μg/ml gentamicin, and 10% fetal bovine serum. For the purpose of conducting the phosphoinositide (PI) turnover experiments, the A7r5 cells are cultured in 24-well plates as previously [J. Pharmacol. Expt. Ther. 286, 411 (1998)]. Confluent cells are exposed for 24–30 hrs to 1.5 μCi [^3H]-myo-inositol (18.3 Ci/mmol) in 0.5 ml of serum-free medium. Cells are then rinsed once with DMEM/F-12 containing 10 mM LiCl prior to incubation with the test agent (or solvent as the control) in 1.0 mL of the same medium for 1 hr at 37° C., after which the medium is aspirated and 1 ml of cold 0.1 M formic acid added to stop the reaction. The chromatographic separation of [^3H]-inositol phosphates ([^3H]-IPs) on an AG-1-X8 column is performed as previously described [J. Pharmacol. Expt. Ther. 286, 411 (1998)] with sequential washes with H2O and 50 mM ammonium formate, followed by elution of the total [^3H]-IPs fraction with 1.2 M ammonium formate containing 0.1 M formic acid. The eluate (4 mL) is collected, mixed with 15 ml scintillation fluid, and the total [^3H]-IPs determined by scintillation counting on a beta-counter. Concentration-response data are analyzed by the sigmoidal fit function of the Origin Scientific Graphics software (Microcal Software, Northampton, Mass.) to determine agonist potency (EC50 value) and efficacy (Emax).

[2] = monkey; Wang et al. 1997/1998; attributed to α1A receptor activity; cited from earlier work
[3] = rabbits; Osborne et al. 1996; cited from earlier work
5-HT2 receptor [4] = molecular target: T2, 5-HT2 receptor; test: 5-HT2 receptor binding assay ([125I]DOI competition, cerebral cortex homogenates); settings: 5-point, read-out: Rat Cerebral Cortex 5-HT2 IC50 5-pt (DOI)
Description: The assay mixture is incubated for 1 hour at 23° C. in polypropylene tubes and the assays terminated by rapid vacuum filtration over Whatman GF/B glass fiber filters previously soaked in 0.3% polyethyleneimine using ice-cold buffer. Test compounds (at different concentrations) are substituted for methiothepin. Filter-bound radioactivity is determined by scintillation spectrometry on a beta counter. The data are analyzed using a non-linear, iterative curve-fitting computer program [Trends Pharmacol. Sci., 16, 413 (1995)] to determine the compound affinity parameter.

[5] = A7r5 cells, percentage of maximum 5-HT-induced response
[6] = A7r5 cells, Ca2+ mobilization, read-out: FLIPR 5-HT2a EC50

Row | Molecule | EC50 (5-HT2a) [nM] | Emax (5-HT2a; [5]) [%] | further results
1 | COc1cc(CC(C)N)cc2ccccc12 (centres unmarked) [Example 11, 2-(4-methoxy-naphthalen-2-yl)-1-methylethylamine hydrochloride] | 612 | 46.4 | –
2 | COc1cc(CC(C)N)c(OC)c2ccccc12 (centres unmarked) [Example 1, 2-(1,4-Dimethoxy-naphthalen-2-yl)-1-methylethylamine hydrochloride] | 188 | 46.5 | EC50 (5-HT2 receptor [1]): 238 nM; Emax (5-HT2 receptor [1]; A7R5; read-out: Efficacy (Emax, %)): 118%
3 | COc1ccc(OC)c2cc(CC(C)N)ccc12 (centres unmarked) [Example 8, 2-(5,8-dimethoxy-naphthalen-2-yl)-1-methylethylamine hydrochloride] | – | 2.6 | –
4 | CC(N)Cc1ccc2ccccc2c1 (centres unmarked) [Example 10, 2-(naphthalen-2-yl)-1-methylethylamine hydrochloride] | – | 20.4 | –
5 | COc1c(CC(C)N)cc(Br)c2ccccc12 (centres unmarked) [Example 5, 2-(4-Bromo-1-methoxy-naphthalen-2-yl)-1-methylethylamine hydrochloride] | 1120 | 38.9 | –
6 | COc1ccccc1N1CCN(CCCNc2c(C)c(=O)n(C)c(=O)n2C)CC1 [5-methylurapidil] | – | – | effect on IOP [2]: lowers IOP
7 | COc1cc(C(O)C(C)N)c(OC)c2ccccc12 (centres unmarked) [Example 2, 2-Amino-1-(1,4-dimethoxy-naphthalen-2-yl)-propan-1-ol hydrochloride] | – | 26.9 | EC50 (5-HT2a; [6]): 1490 nM; EC50 (5-HT2 receptor [1]): 6810 nM; Emax (5-HT2 receptor [1]; A7R5, read-out: Efficacy (Emax, %)): 113%
8 | COc1cc(C(=O)C(C)N)c(OC)c2ccccc12 (centres unmarked) [Example 9, 2-amino-1-(1,4-dimethoxy-naphthalen-2-yl)-propan-1-one hydrochloride] | – | 21.8 | –
9 | COc1cc(CC(C)N)c(Br)c2ccccc12 (centres unmarked) [Example 12, 2-(1-Bromo-4-methoxy-naphthalen-2-yl)-1-methylethylamine hydrochloride] | 911 | 37.4 | –
10 | COc1cc([C@H](O)[C@@H](C)N)c(OC)c2ccccc12 [Example 3, (1S,2R)-2-Amino-1-(1,4-dimethoxy-naphthalen-2-yl)-propan-1-ol hydrochloride] | – | 28.4 | EC50 (5-HT2a; [6]): 1410 nM
11 | CCCN(CCC)C1CCc2cccc(O)c2C1 (centres unmarked) [Example 8-OH-DPAT, 8-hydroxydipropylaminotetralin] | – | – | effect on IOP [3]: reduces IOP
12 | COc1c(CC(C)N)ccc2ccccc12 (centres unmarked) [Example 4, 2-(1-Methoxy-naphthalen-2-yl)-1-methylethylamine hydrochloride] | 580 | 28.9 | –
13 | CC(N)Cc1ccc2ccccc2c1O (centres unmarked) [Example 7, 2-(1-hydroxy-naphthalen-2-yl)-1-methylethylamine hydrochloride] | – | 17.3 | –
14 | 2-amino-1-(3,8-dimethoxy-naphthalen-2-yl)-propan-1-ol hydrochloride [Example 6] | – | – | IC50 (5-HT2 receptor [4]): 4.92 nM; FLIPR 5-HT2a % Emax A7r5 Ca + 2 (5-HT2a; [5]): 17.8%
